Assay results from patent US11826355B1, “Aspirin-mimetic antioxidants for treatment of age-related cataract” (priority 2022, dated 2023).
Several values for one entry are separate records, joined by “and”; a condition that tells them apart may be missing. Equal entries are not always repeated.

Columns and labels:
[1] = tested on: lung cancer; details: 1994 ATBC RCT; cited from earlier work
[2] = tested on: acute ischemia stroke (AIS) and/or ALS; details: approved for acute ischemia stroke (AIS) and/or ALS; cited from earlier work
[3] = Body weight of rats in the cataract model study; assay type: in vivo, rat; details: G1, 0.8 mg/15 mL, 10 μl 3 times/day
Method: (§1) At the age of 11-12 days after birth, all suckling rats underwent a single intraperitoneal injection of sodium selenite (30 μmol/kg, i.e., 0.1 ml/10 g) for model-building. Sodium selenite solution was configured with normal saline at a concentration of 3 mM.
(§2) At the age of 19 days after birth (D-1) of the suckling rats, 30 lens opacities were selected for a cloudy rating at Class 4 or 5; Wister suckling rats were randomly divided into 5 groups (G1-G5 groups, 6 in each group); and a cage of suckling rats as G6 was randomly selected after the animals opened their eyes (14-16 days of age).
(§3) The subject suckling rats of groups G1 to G5 were treated at the age of 20 days after birth (D1), and the specific dosing information is shown in Table 1. Treatment in the G6 group was conducted after the animals opened their eyes (14-16 days old, D-6-D-4), and the specific dosing information is shown in Table 1.

[4] = General clinical observations during 60-day eye drop administration; assay type: in vivo, rat; details: eye drops 3 times/day, 60-day administration phase, all concentrations
Description: as §2

[5] = tested on: Wistar rat cataract model induced by sodium selenite; assay: Lens opacity score (slit lamp) in sodium selenite-induced cataract rat model; assay type: in vivo; design: lens opacity score, Mean / lens opacity score / lens opacity score, raw data per eye (OD/OS, rats 1-6): scale not given here; details: G1, 0.8 mg/15 mL, 10 μl 3 times/day
Method: A new batch of eye drops solutions was prepared every week. Placebo was a solution that contained the same excipients but without the drug compound. The eye drops solutions were prepared as follows:
3. An illustrative procedure: To a 250 mL volume flask were added 25 mg each of the excipients, sodium borate, boric acid, sodium chloride, and potassium chloride, an aspirin mimetic drug compound to be tested (e.g., DPL-004, 9.0 mg), and about 200 ml of sterilized water to form a mixture. The resultant mixture was shaken well to dissolve solids; and more sterilized water was added to bring the volume of solution to 250 mL, which was shaken well and then distributed into small portions. Each portion was labeled with a concentration of 3.6 mg/100 mL and the preparation date and was stored in a refrigerator for future use.
4. Eye drops solutions comprising DPL-004 at a concentration of 36 mg/100 mL and 12 mg/100 mL were prepared similarly according to the above procedure by using 90 mg and 30 mg of DPL-004, respectively, while maintaining the same amounts of excipients as shown above.
as §1, §2, §3
At D-1, in the fourth week of treatment, the slit lamp was used at the end of administration to observe the turbidity of the lens and grade it, and the grading and scoring criteria are shown in the following Table 2.

[6] = tested on: prostate cancer; details: 2008 SELECT RCT; cited from earlier work
[7] = pH about 6.4, day -1 (before administration)

**Q.** With CC1=C(/C=C/C(C)=C/C=C/C(C)=C/C=C/C=C(C)/C=C/C=C(C)/C=C/C2=C(C)CCCC2(C)C)C(C)(C)CCC1 [Beta-carotene only, Beta-carotene] as the molecule, how does the “Adverse Effects: more lung cancer” value [1] read?
**A.** Its value is 18% more lung.

**Q.** For CC1=NN(c2ccccc2)C(=O)C1 [Edaravone], which “efficacy (marginal)” value [2] is on record?
**A.** The value was 5%.

**Q.** For O=C(O)c1cc(O)c2c3nc4ccccc4oc-3cc(=O)c2n1 [Pirenoxine, reference compound], which “Body Weight, Mean” value ([3]; pH about 6.4, day 4) is on record?
**A.** The value was 57.07 g.

**Q.** And the “Body Weight, Mean” value ([3]; pH about 6.4, day 11)?
**A.** The value was 96.02 g.

**Q.** And the “Body Weight, Mean” value ([3]; pH about 6.4, day 18)?
**A.** The value was 133.87 g.

**Q.** What about the “Body Weight, Mean” value ([3]; pH about 6.4, day 25) of the same molecule?
**A.** The value was 163.00 g.

**Q.** What about the “Body Weight, Mean” value ([3]; pH about 6.4, day 32) of the same molecule?
**A.** The value was 197.18 g.

**Q.** And the “Body Weight, Mean” value ([3]; pH about 6.4, day 39)?
**A.** Its value is 219.45 g.

**Q.** What about the “Body Weight, Mean” value ([3]; pH about 6.4, day 46) of the same molecule?
**A.** The value was 239.75 g.

**Q.** What about the “Body Weight, Mean” value ([3]; pH about 6.4, day 53) of the same molecule?
**A.** Its value is 255.82 g.

**Q.** What about the “Body Weight, Mean” value ([3]; pH about 6.4, day 60) of the same molecule?
**A.** Its value is 270.00 g.

**Q.** And the “Body Weight, Mean” value [3, 7]?
**A.** The value was 43.48 g.

**Q.** And the “abnormal symptoms (activity status, body weight, skin hair, secretion morphology and color)” value [4]?
**A.** The value was “no abnormal symptoms”.

**Q.** And the “lens opacity score, Mean” value ([5]; pH about 6.4, day 28)?
**A.** Its value is 3.42.

**Q.** And the “lens opacity score, raw data per eye (OD/OS, rats 1-6)” value (from here on “lens opacity score, raw data per eye”) ([5]; pH about 6.4, day 28)?
**A.** The value was 3 and 4.

**Q.** What about the “lens opacity score, Mean” value ([5]; pH about 6.4, day 60) of the same molecule?
**A.** The value was 2.92.

**Q.** And the “lens opacity score, raw data per eye” value ([5]; pH about 6.4, day 60)?
**A.** The value was 2 and 4 and 3.

**Q.** What about the “lens opacity score, Mean” value [5, 7] of the same molecule?
**A.** The value was 4.00.

**Q.** What about the “lens opacity score, raw data per eye” value [5, 7] of the same molecule?
**A.** Its value is 4.

**Q.** Which “Adverse Effects: more prostate cancer” value [6] does the source give for Cc1c(C)c2c(c(C)c1O)CC[C@@](C)(CCC[C@H](C)CCC[C@H](C)CCCC(C)C)O2 [Vitamin E] here?
**A.** The value was 17% more prostate.
